US8389508B2 (Glaxo Group Limited, priority 2010, dated 2013)
Counter-ions that a name gives are not always drawn.

Key:
[1] = target: T1, human Endothelial Differentiation Gene 1 (EDG1), S1P1 receptor (Homo sapiens, UniProt P21453); test: S1P1 Assay (Tango EDG1-bla/U2OS beta-lactamase reporter, agonist dose response); type: cell-based; conditions: EDG1-bla/U2OS cells, blue/green emission ratio, 10 point dose response, free base or salt form; read-out: pEC50 (S1P1 assay) (converted)
T1 construct: TEV protease site; Gal4-VP16 transcription factor; expressed in transfected cells; host or cells: EDG1-bla/U2OS (Tango GPCR-bla U2OS parental cell line)
Method: Recombinant EDG1-bla/U2OS cells (contain the human Endothelial Differentiation Gene 1 (EDG1) linked to a TEV protease site and a Gal4-VP16 transcription factor stably integrated into the Tango GPCR-bla U2OS parental cell line) were harvested from growth medium and passaged into assay medium (Invitrogen Freestyle Expression Medium). The cells were starved for 24 hours at 37° C., 5% CO2, harvested and resuspended in assay medium at a density of ˜200,000 cells/ml. All test compounds were dissolved in DMSO at a concentration of 10 mM and were prepared in 100% DMSO to provide 10 point dose response curves. Test compounds in the free base or in a salt form were prepared by Velocity11 Bravo automation (Agilent) were added to wells in columns 2-11 and 13-22; DMSO was added to wells in columns 12 and 23 as unstimulated controls and assay medium was added to wells in columns 1 and 24 as cell-free controls. An S1P1 agonist was added to wells in row 2, columns 2-11 as stimulated controls and test compounds were added to wells in row 2, columns 13-22 and rows 3-15, columns 2-11/13-22 (row 1 and 16 were empty and not used). Compounds in solution were added to the assay plate (Greiner 781090) using an Echo (Labcyte) dose-response program (50 nl/well). The unstimulated and cell-free controls were loaded with 50 nl/well pure DMSO to ensure that the DMSO concentration was constant across the plate for all assays. 50 μl of the cell suspension was added to each well in columns 2-23 of the plate (˜10,000 cells per well). 50 μl of assay medium was added to each well in the cell-free controls (columns 1 and 24). The cells were incubated overnight at 37° C./5% CO2.
(§1) 10 μl of 6× substrate mixture (LiveBLAzer™-FRET B/G substrate (CCF4-AM) Cat # K1096 from Invitrogen, Inc.) was added to each well using Bravo automation and the plates incubated at room temperature for 2 h in the dark. The plate was finally read on EnVision using one excitation channel (409 nm) and two emission channels (460 nm and 530 nm).
(§2) The blue/green emission ratio (460 nm/530 nm) was calculated for each well, by dividing the background-subtracted Blue emission values by the background-subtracted Green emission values. The dose response curve is based on sigmoidal dose-response model. All ratio data was normalized based upon the maximum emission ratio of positive control and minimum emission ratio of negative control (DMSO) on each plate. The intrinsic activity (IA) of each compound is defined as relative response normalised to a reference compound, whose maximum response is defined as 100% after curve fitting.

[2] = target: T2, human Endothelial Differentiation G-protein Coupled Receptor 3 (EDG3), S1P3 receptor (Homo sapiens, UniProt Q99500); test: S1P3 Assay (GeneBLAzer EDG3-Ga15-NFAT-bla HEK 293T beta-lactamase reporter, agonist dose response); type: cell-based; conditions: EDG3-Ga15-NFAT-bla HEK 293T cells, blue/green emission ratio, 10 point dose response, free base or salt form; read-out: pEC50 (S1P3 assay) (converted)
T2 construct: expressed in transfected cells; host or cells: GeneBLAzer EDG3-Ga15-NFAT-bla HEK 293T
Method: GeneBLAzer EDG3-Ga15-NFAT-bla HEK 293T cells (contain the human Endothelial Differentiation G-protein Coupled Receptor 3 (EDG3) and a beta-lactamase reporter gene under control of a NFAT response element and a promiscuous G Protein, Ga15, stably integrated into the GeneBLAzer Ga15-NFAT-bla HEK 293T cell line) were harvested from growth medium and suspended in assay medium (90% DMEM, 10% Charcoal-stripped FBS, 0.1 mM NEAA, 25 mM HEPES (pH 7.3), 100 U/ml penicillin, 100 μg/ml streptomycin) at a density of […]. All test compounds were dissolved in DMSO at a concentration of 10 mM and were prepared in 100% DMSO to provide 10 point dose response curves. Test compounds in the free base or in a salt form were prepared by Velocity 11 Bravo automation (Agilent) were added to wells in columns 2-11 and 13-22; DMSO was added to wells in columns 12 and 23 as unstimulated controls and assay medium was added to wells in columns 1 and 24 as cell-free controls. An S1P3 agonist was added to wells in row 2, columns 2-11 as stimulated controls and test compounds were added to wells in row 2, columns 13-22 and rows 3-15, columns 2-11/13-22 (row 1 and 16 were empty and not used). Compounds in solution were added to the assay plate (Greiner 781090) using an Echo (Labcyte) dose-response program (50 nl/well). The unstimulated and cell-free controls were loaded with 50 nl/well pure DMSO to ensure that the DMSO concentration was constant across the plate for all assays.
50 μl of the cell suspension was added to each well in columns 2-23 of the plate (˜10,000 cells per well). 50 μl of assay medium was added to each well in the cell-free controls (columns 1 and 24). The cells were incubated overnight at 37° C./5% CO2.
as §1, §2

T1 sequence (P21453 whole entry, the tested form may be a part): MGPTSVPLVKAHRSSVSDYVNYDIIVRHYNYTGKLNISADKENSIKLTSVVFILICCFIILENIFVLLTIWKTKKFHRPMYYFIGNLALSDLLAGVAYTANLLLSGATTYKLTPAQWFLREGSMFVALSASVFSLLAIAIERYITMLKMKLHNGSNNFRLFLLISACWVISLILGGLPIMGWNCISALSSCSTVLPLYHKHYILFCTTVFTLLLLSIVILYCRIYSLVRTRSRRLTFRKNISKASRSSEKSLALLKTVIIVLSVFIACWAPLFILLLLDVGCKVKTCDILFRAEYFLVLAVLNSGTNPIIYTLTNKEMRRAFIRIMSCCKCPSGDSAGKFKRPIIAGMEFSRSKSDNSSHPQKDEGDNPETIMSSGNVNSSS
T2 sequence (Q99500 whole entry): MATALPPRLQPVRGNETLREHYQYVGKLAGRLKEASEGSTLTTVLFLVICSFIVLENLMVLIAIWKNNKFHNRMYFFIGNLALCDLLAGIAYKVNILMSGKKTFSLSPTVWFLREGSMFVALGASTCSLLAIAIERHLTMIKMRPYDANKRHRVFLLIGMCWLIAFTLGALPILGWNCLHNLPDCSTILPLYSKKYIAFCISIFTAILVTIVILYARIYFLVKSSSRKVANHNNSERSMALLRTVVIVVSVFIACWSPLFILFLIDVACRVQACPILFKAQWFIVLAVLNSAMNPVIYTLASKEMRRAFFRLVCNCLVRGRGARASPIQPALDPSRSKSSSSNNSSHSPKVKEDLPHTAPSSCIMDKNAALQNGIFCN

CCc1c(CN2CCC(C(=O)O)CC2)cccc1-c1cnc(-c2ccc(OC(C)C)c(Cl)c2)s1 [Example 36, 1-{[3-(2-{3-chloro-4-[(1-methylethyl)oxy]phenyl}-1,3-thiazol-5-yl)-2-ethylphenyl]methyl}-4-piperidinecarboxylic acid trifluoroacetate]
EC50 [1]: < 0.1 µM
EC50 [2]: > 10 µM

CCc1c(-c2nsc(-c3ccc(OC(C)C)c(Cl)c3)n2)cccc1C1CCN(CC(=O)O)CC1 [Example 99, {4-[3-(5-{3-chloro-4-[(1-methylethyl)oxy]phenyl}-1,2,4-thiadiazol-3-yl)-2-ethylphenyl]-1-piperidinyl}acetic acid trifluoroacetate]
EC50 [1]: ≤ 0.01 µM
EC50 [2]: > 3.16 µM

CCc1c(CCN2CC(C(=O)O)C2)cccc1-c1nnc(-c2ccc(CC(C)C)c(C#N)c2)s1 [Example 10, 1-[2-(3-{5-[3-cyano-4-(2-methylpropyl)phenyl]-1,3,4-thiadiazol-2-yl}-2-ethylphenyl)ethyl]-3-azetidinecarboxylic acid]
EC50 [1]: < 0.001 µM
EC50 [2]: > 3.16 µM

CCc1c(CCN2CCC[C@H]2C(=O)O)cccc1-c1cnc(-c2ccc(OC(C)C)c(C#N)c2)s1 [Example 88, 1-{2-[3-(2-{3-cyano-4-[(1-methylethyl)oxy]phenyl}-1,3-thiazol-5-yl)-2-ethylphenyl]ethyl}-L-proline trifluoroacetate]
EC50 [1]: ≤ 0.01 µM
EC50 [2]: > 10 µM

CCc1c(CCN2CCC(C(=O)O)CC2)cccc1-c1nnc(-c2ccc(CC(C)C)c(C#N)c2)s1 [Example 11, 1-[2-(3-{5-[3-cyano-4-(2-methylpropyl)phenyl]-1,3,4-thiadiazol-2-yl}-2-ethylphenyl)ethyl]-4-piperidinecarboxylic acid]
EC50 [1]: < 0.001 µM
EC50 [2]: > 3.16 µM

COc1c(CCN2CCC(C(=O)O)CC2)cc(F)cc1-c1nnc(-c2ccc(OC(C)C)c(C(F)(F)F)c2)s1 [Example 13, 1-{2-[5-fluoro-3-{5-[4-[(1-methylethyl)oxy]-3-(trifluoromethyl)phenyl]-1,3,4-thiadiazol-2-yl}-2-(methyloxy)phenyl]ethyl}-4-piperidinecarboxylic acid]
EC50 [1]: < 0.1 µM
EC50 [2]: > 10 µM

CCc1c(CN2CCC(C(=O)O)C2)cccc1-c1nnc(-c2ccc(OC(C)C)c(Cl)c2)s1 (stereo not drawn) [Example 44, 1-{[3-(5-{3-chloro-4-[(1-methylethyl)oxy]phenyl}-1,3,4-thiadiazol-2-yl)-2-ethylphenyl]methyl}-3-pyrrolidinecarboxylic acid trifluoroacetate]
EC50 [1]: ≤ 0.01 µM
EC50 [2]: > 3.16 µM

CCc1c(CN2CC(C(=O)O)C2)cccc1-c1nsc(-c2ccc(OC(C)C)c(C#N)c2)n1 [Example 17, 1-{[3-(5-{3-cyano-4-[(1-methylethyl)oxy]phenyl}-1,2,4-thiadiazol-3-yl)-2-ethylphenyl]methyl}-3-azetidinecarboxylic acid trifluoroacetate]
EC50 [1]: ≤ 0.01 µM
EC50 [2]: > 3.16 µM

CCc1c(CCN2CC(C(=O)O)C2)cccc1-c1nnc(-c2ccc(OC(C)C)c(C(F)(F)F)c2)s1 [Example 7, 1-[2-(2-ethyl-3-{5-[4-[(1-methylethyl)oxy]-3-(trifluoromethyl)phenyl]-1,3,4-thiadiazol-2-yl}phenyl)ethyl]-3-azetidinecarboxylic acid trifluoroacetate]
EC50 [1]: < 0.001 µM
EC50 [2]: > 3.16 µM

CCc1c(-c2nsc(-c3ccc(OC(C)C)c(Cl)c3)n2)cccc1C1CCN(CCC(=O)O)CC1 [Example 100, 3-{4-[3-(5-{3-chloro-4-[(1-methylethyl)oxy]phenyl}-1,2,4-thiadiazol-3-yl)-2-ethylphenyl]-1-piperidinyl}propanoic acid]
EC50 [1]: ≤ 0.01 µM
EC50 [2]: > 10 µM

CCc1c(CN2CCCC(C(=O)O)C2)cccc1-c1nnc(-c2ccc(OC(C)C)c(Cl)c2)s1 (stereo not drawn) [Example 46]
EC50 [1]: < 0.1 µM
EC50 [2]: > 10 µM

CCc1c(CN2CC(C(=O)O)C2)cccc1-c1cnc(-c2ccc(OC(C)C)c(C(F)(F)F)c2)s1 [Example 31, 1-[(2-ethyl-3-{2-[4-[(1-methylethyl)oxy]-3-(trifluoromethyl)phenyl]-1,3-thiazol-5-yl}phenyl)methyl]-3-azetidinecarboxylic acid]
EC50 [1]: < 0.001 µM
EC50 [2]: > 3.16 µM

CCc1c(-c2nsc(-c3ccc(CC(C)C)c(C#N)c3)n2)cccc1C1CN(CCCC(=O)O)C1 [Example 104, 4-[3-(3-{5-[3-cyano-4-(2-methylpropyl)phenyl]-1,2,4-thiadiazol-3-yl}-2-ethylphenyl)-1-azetidinyl]butanoic acid trifluoroacetate]
EC50 [1]: ≤ 0.01 µM
EC50 [2]: > 10 µM

CCc1c(CN2CC[C@H](C(=O)O)C2)cccc1-c1cnc(-c2ccc(OC(C)C)c(C#N)c2)s1 [Example 84]
EC50 [1]: ≤ 0.01 µM
EC50 [2]: > 10 µM

CCc1c(CCN2CCC[C@H](C(=O)O)C2)cccc1-c1nsc(-c2ccc(CC(C)C)c(C#N)c2)n1 [Example 80]
EC50 [1]: < 0.001 µM
EC50 [2]: > 3.16 µM

CCc1c(CN2CCC(CC(=O)O)CC2)cccc1-c1cnc(-c2ccc(OC(C)C)c(C#N)c2)s1 [Example 87]
EC50 [1]: < 0.1 µM
EC50 [2]: > 10 µM

CCc1c(CN2CC(C(=O)O)C2)cccc1-c1cnc(-c2ccc(OC(C)C)c(C#N)c2)s1 [Example 38, 1-{[3-(2-{3-cyano-4-[(1-methylethyl)oxy]phenyl}-1,3-thiazol-5-yl)-2-ethylphenyl]methyl}-3-azetidinecarboxylic acid trifluoroacetate]
EC50 [1]: < 0.001 µM
EC50 [2]: > 10 µM

CCc1c(CCN2CCC[C@H](C(=O)O)C2)cccc1-c1nnc(-c2ccc(CC(C)C)c(C#N)c2)s1 [Example 64]
EC50 [1]: < 0.001 µM
EC50 [2]: > 3.16 µM

CCc1c(CCN2CCC(CC(=O)O)CC2)cccc1-c1nsc(-c2ccc(OC(C)C)c(Cl)c2)n1 [Example 72]
EC50 [1]: ≤ 0.01 µM
EC50 [2]: > 3.16 µM

CCc1c(CN2CCCC(C(=O)O)C2)cccc1-c1nnc(-c2ccc(CC(C)C)c(C#N)c2)s1 (stereo not drawn) [Example 50]
EC50 [1]: ≤ 0.01 µM
EC50 [2]: > 10 µM

CCc1c(CN2CCC[C@H](C(=O)O)C2)cccc1-c1nnc(-c2ccc(OC(C)C)c(Cl)c2)s1 [Example 47]
EC50 [1]: ≤ 0.01 µM
EC50 [2]: > 10 µM

CCc1c(CN2CCC(C(=O)O)CC2)cccc1-c1nsc(-c2ccc(OC(C)C)c(C#N)c2)n1 [Example 16, 1-{[3-(5-{3-cyano-4-[(1-methylethyl)oxy]phenyl}-1,2,4-thiadiazol-3-yl)-2-ethylphenyl]methyl}-4-piperidinecarboxylic acid trifluoroacetate]
EC50 [2]: > 10 µM

CCc1c(CN2C[C@H](O)C[C@H]2C(=O)O)cccc1-c1cnc(-c2ccc(OC(C)C)c(C#N)c2)s1 [Example 85]
EC50 [2]: > 10 µM

CCc1c(CN2CCC(C(=O)O)CC2)cccc1-c1nnc(-c2ccc(OC(C)C)c(Cl)c2)s1 [Example 3, 1-{[3-(5-{3-chloro-4-[(1-methylethyl)oxy]phenyl}-1,3,4-thiadiazol-2-yl)-2-ethylphenyl]methyl}-4-piperidinecarboxylic acid trifluoroacetate]
EC50 [2]: > 3.16 µM
